Assay results: ChEMBL document CHEMBL1128814, “Non-peptide neuropeptide y antagonists derived from the histamine H2 agonist arpromidine: Role of the guanidine group” (Bioorg Med Chem Lett, 1995)
The source made the active and inactive calls. No cut-off for these calls is given here.

Experiments:
[1] = target: T1, Neuropeptide Y receptor type 1 (Homo sapiens) (UniProt P25929); experiment: Tested for inhibition of NPY-induced increase in [Ca2+] at 100 uM concentration in human erythroleukemia cells; assay type: functional
T1 sequence (whole entry): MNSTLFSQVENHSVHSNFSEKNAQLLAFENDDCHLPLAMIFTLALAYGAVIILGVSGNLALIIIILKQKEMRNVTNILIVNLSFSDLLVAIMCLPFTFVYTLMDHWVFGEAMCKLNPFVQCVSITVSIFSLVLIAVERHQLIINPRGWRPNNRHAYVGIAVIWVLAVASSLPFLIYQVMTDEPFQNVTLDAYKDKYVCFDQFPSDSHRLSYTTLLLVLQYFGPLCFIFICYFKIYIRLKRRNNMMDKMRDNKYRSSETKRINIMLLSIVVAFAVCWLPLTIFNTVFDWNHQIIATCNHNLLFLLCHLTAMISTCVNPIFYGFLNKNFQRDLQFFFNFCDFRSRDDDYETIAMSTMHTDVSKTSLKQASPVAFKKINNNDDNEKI

[2] = target: T1, Neuropeptide Y receptor type 1 (Homo sapiens); experiment: Tested for inhibition of NPY-induced increase in [Ca2+] at 10 uM concentration in human erythroleukemia cells; assay type: functional
[3] = target: Histamine H2 receptor (Cavia porcellus) (UniProt P47747); experiment: Histamine H2 receptor agonistic activity (positive chronotropism) was evaluated by the inhibition of histamine-stimulated contraction in guinea pig atrium; Inactive; assay type: functional, tissue-based; conditions: Cardiac atrium
[4] = target: Histamine H1 receptor (Cavia porcellus) (UniProt P31389); experiment: Antagonistic activity (H1 antagonism) evaluated by the inhibition of histamine-stimulated contraction in guinea pig ileum at a concentration of 1E-7 - 1E-4 M; assay type: functional, tissue-based
[5] = target: T1, Neuropeptide Y receptor type 1 (Homo sapiens); experiment: Tested for inhibition of NPY-induced increase in [Ca2+] at 100 uM concentration in human erythroleukemia cells; inactive; assay type: functional
[6] = target: Histamine H2 receptor (Cavia porcellus) (UniProt P47747); experiment: Intrinsic activity was evaluated against H2 receptor in guinea pig atrium; assay type: tissue-based; conditions: Cardiac atrium
[7] = target: Histamine H2 receptor (Cavia porcellus) (UniProt P47747); experiment: Histamine H2 receptor agonistic activity was evaluated by the inhibition of histamine-stimulated contraction in guinea pig atrium; assay type: functional, tissue-based; conditions: Cardiac atrium
[8] = target: Histamine H2 receptor (Cavia porcellus) (UniProt P47747); experiment: Intrinsic activity was evaluated against H2 receptor in guinea pig atrium at a concentration of 1E-7 - 1E-4 M; assay type: tissue-based; conditions: Cardiac atrium
[9] = target: Histamine H2 receptor (Cavia porcellus) (UniProt P47747); experiment: Histamine H2 receptor […] activity (positive chronotropism) was evaluated by the inhibition of histamine-stimulated contraction in guinea pig atrium at a concentration of 1E-7 - 1E-4 M; assay type: functional, tissue-based; conditions: Cardiac atrium
[10] = target: T1, Neuropeptide Y receptor type 1 (Homo sapiens); experiment: Tested for inhibition of NPY-induced increase in [Ca2+] at 10 uM concentration in human erythroleukemia cells; Not determined; assay type: functional
[11] = target: T1, Neuropeptide Y receptor type 1 (Homo sapiens); experiment: Tested for inhibition of NPY-induced increase in [Ca2+] at 10 uM concentration in human erythroleukemia cells; inactive; assay type: functional
[12] = target: T2, Neuropeptide Y receptor type 1 (Homo sapiens, UniProt P25929); experiment: (§1) pA2 for inhibition of NPY-stimulated [Ca2+] mobilization in HEL cells; assay type: functional, cell-based; conditions: read-out: pA2 (converted)
T2 sequence (P25929 whole entry): T1 sequence (whole entry)

[13] = target: Histamine H2 receptor (Cavia porcellus) (UniProt P47747); experiment: Intrinsic activity was evaluated in guinea pig atrium at a concentration of 1E-7 - 1E-4 M; assay type: tissue-based; conditions: Cardiac atrium
[14] = target: T1, Neuropeptide Y receptor type 1 (Homo sapiens); experiment: Tested for inhibition of NPY-induced increase in [Ca2+] at 10 uM concentration in human erythroleukemia cells; Not determined; inactive; assay type: functional
[15] = target: T1, Neuropeptide Y receptor type 1 (Homo sapiens); experiment: as §1; assay type: cell-based

Histamine H2 receptor (Cavia porcellus), sequence (P47747 whole entry): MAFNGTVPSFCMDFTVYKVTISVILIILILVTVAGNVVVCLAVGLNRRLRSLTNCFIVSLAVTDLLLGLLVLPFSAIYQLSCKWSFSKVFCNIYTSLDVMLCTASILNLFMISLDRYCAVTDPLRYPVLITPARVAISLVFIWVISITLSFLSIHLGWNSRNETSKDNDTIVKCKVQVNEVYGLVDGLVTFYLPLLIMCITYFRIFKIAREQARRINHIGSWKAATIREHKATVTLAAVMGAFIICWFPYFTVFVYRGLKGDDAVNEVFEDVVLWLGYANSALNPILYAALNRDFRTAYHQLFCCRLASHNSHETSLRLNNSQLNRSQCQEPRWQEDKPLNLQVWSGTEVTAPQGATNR
Histamine H1 receptor (Cavia porcellus), sequence (P31389 whole entry): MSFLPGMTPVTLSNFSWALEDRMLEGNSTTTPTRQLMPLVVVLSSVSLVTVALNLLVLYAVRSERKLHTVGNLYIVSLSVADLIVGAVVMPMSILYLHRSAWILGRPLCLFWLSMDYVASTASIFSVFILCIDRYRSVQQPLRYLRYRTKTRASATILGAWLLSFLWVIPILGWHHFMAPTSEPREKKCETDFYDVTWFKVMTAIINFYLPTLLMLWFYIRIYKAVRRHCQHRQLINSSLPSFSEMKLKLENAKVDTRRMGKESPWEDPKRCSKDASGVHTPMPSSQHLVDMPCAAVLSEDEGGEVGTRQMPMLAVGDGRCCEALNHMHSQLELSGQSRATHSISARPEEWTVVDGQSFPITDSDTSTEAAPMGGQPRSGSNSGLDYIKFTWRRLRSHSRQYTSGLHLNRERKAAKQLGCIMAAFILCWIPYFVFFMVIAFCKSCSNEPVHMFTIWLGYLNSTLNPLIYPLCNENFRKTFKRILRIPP

Row | inhibition [1] [%] | inhibition [2] [%] | pKB [4] | Intrinsic activity [6] | pD2 [7] | Structure (SMILES) | further results
1 | 62 | 2 |  |  |  | NC(=O)N/C(=N\CCC(c1ccc(F)cc1)c1ccccn1)NCCCc1c[nH]cn1 (stereo unspecified) | 
2 |  |  | 6.44 |  |  | N=C(N)NCCC(c1ccc(F)cc1)c1ccccn1 (stereo unspecified) | pD2 [3]: inactive; inhibition [5]: inactive
3 | 27 | 5 | 6.56 | 0.6 | 6.47 | N=C(CCCCc1c[nH]cn1)NCCC(c1ccc(F)cc1)c1ccccn1 (stereo unspecified) | 
4 | 53 | 6 | 5.56 | 0.25 | 4.49 | c1ccc(C(CCC/N=C(/NCCCc2c[nH]cn2)NC2CCCCC2)c2ccccn2)cc1 (stereo unspecified) | 
5 | 82 | 36 | 5.42 | 0.65 | 4.69 | Brc1ccc(C(CC/N=C(/NCCCc2c[nH]cn2)NC2CCCCC2)c2ccccn2)cc1 (stereo unspecified) | 
6 | 41 |  | 6.16 | 1 | 5.58 | CN/C(=N\CCCC(c1ccc(Cl)c(Cl)c1)c1ccccn1)NCCCc1c[nH]cn1 (stereo unspecified) | 
7 | 24 |  | 6.43 | 0.5 | 5.17 | Fc1ccc(C(CCCNCCCc2c[nH]cn2)c2ccccn2)cc1 (stereo unspecified) | 
8 | 69 | 2 | 7.01 | 1 | 7.39 | N=C(NCCCc1c[nH]cn1)NCCC(c1ccccc1)c1ccccn1 (stereo unspecified) | 
9 | 42 |  | 5.96 | 0.8 | 5.4 | CN(CCC(c1ccc(F)cc1)c1ccccn1)C(=N)NCCCc1c[nH]cn1 (stereo unspecified) | 
10 | 84 | 8 | 6.06 | 1 | 6.61 | N=C(NCCCc1c[nH]cn1)NCCCC(c1ccccc1)c1ccccn1 (stereo unspecified) | 
11 | 78 |  | 5.5 |  |  | Clc1ccc(C(CCC/N=C(/NCCCc2c[nH]cn2)Nc2ccccc2)c2ccccn2)cc1Cl (stereo unspecified) | Intrinsic activity [8]: 1; pKB [9]: 4.97; inhibition [10]: 48%
12 | 13 |  | 5.08 | 1 | 5.65 | CN/C(=N\CCC(c1ccc(F)cc1)c1ccccn1)NCCCc1c[nH]cn1 (stereo unspecified) | 
13 | 38 |  | 5.71 | 0.9 | 5.75 | CN/C(=N\CCC(c1ccc(Br)cc1)c1ccccn1)NCCCc1c[nH]cn1 (stereo unspecified) | inhibition [11]: inactive
14 | 75 | 24 | 5.4 | 1 |  | Cc1ccc(CC(CC/N=C(/NCCCc2c[nH]cn2)NC2CCCCC2)c2ccccn2)cc1 (stereo unspecified) | pKB [9]: 5.93
15 | 78 | 31 | 7.46 | 1 | 6.67 | N=C(NCCCc1c[nH]cn1)NCCCC(c1ccc(Cl)c(Cl)c1)c1ccccn1 (stereo unspecified) | 
16 | 62 |  | 6.56 | 1 | 8.05 | N=C(NCCCc1c[nH]cn1)NCCC(c1cc(F)cc(F)c1)c1ccccn1 (stereo unspecified) | Kb [12]: 37.2 µM
17 | 13 |  |  |  |  | N#CN/C(=N\CCC(c1ccc(F)cc1)c1ccccn1)NCCCc1c[nH]cn1 (stereo unspecified) | pD2 [3]: inactive; inhibition [11]: inactive
18 | 4 | 2 | 5.3 |  |  | CCOC(=O)N/C(=N\CCC(c1ccc(F)cc1)c1ccccn1)NCCCc1c[nH]cn1 (stereo unspecified) | pD2 [3]: inactive
19 | 75 | 18 | 7.65 | 1 | 8.01 | N=C(NCCCc1c[nH]cn1)NCCC(c1ccc(F)cc1)c1ccccn1 (stereo unspecified) | 
20 | 76 | 24 | 5.81 |  |  | Brc1ccc(C(CC/N=C(/NCCCc2c[nH]cn2)Nc2ccccc2)c2ccccn2)cc1 (stereo unspecified) | Intrinsic activity [13]: 1; pKB [9]: 5.14
21 |  |  | 3.97 |  | < 3 | O=C(CCC(c1ccc(F)cc1)c1ccccn1)NCCCc1c[nH]cn1 (stereo unspecified) | Intrinsic activity [8]: 1; inhibition [14]: inactive
22 |  | 23 | 6.4 | 1 | 5.81 | Cc1ccc(CC(CC/N=C(\N)NCCCc2c[nH]cn2)c2ccccn2)cc1 (stereo unspecified) | 
23 | 93 | 81 | 7.1 | 1 | 8.19 | N=C(NCCCc1c[nH]cn1)NCCC(c1ccc(Cl)c(Cl)c1)c1ccccn1 (stereo unspecified) | pKB [15]: 6.25
24 | 87 |  | 5.76 | 1 | 4.65 | Clc1ccc(C(CCC/N=C(/NCCCc2c[nH]cn2)NC2CCCCC2)c2ccccn2)cc1Cl (stereo unspecified) | inhibition [10]: 30%
25 | 85 | 27 | 6.92 | 1 | 7.48 | N=C(NCCCc1c[nH]cn1)NCCC(c1ccc(Br)cc1)c1ccccn1 (stereo unspecified) | 
26 | 45 |  | 6.45 | 1 | 6.5 | N=C(CCC(c1ccccc1)c1ccccn1)NCCCc1c[nH]cn1 (stereo unspecified) | 
